From ChEMBL document CHEMBL5055659, “Photosensitive and Photoswitchable TRPA1 Agonists Optically Control Pain through Channel Desensitization” (J Med Chem, 2021) come the findings set out here.

The target of data set [1] is Sodium channel protein type 5 subunit alpha (Homo sapiens, UniProt Q14524). The experiment in a line: Effect on Nav1.5 (unknown origin) transfected in CHO cells assessed as activation of channel current in presence of 365 nm UV irradiation by whole-cell patch clamp electrophysiology. In kind it is cell-based.
Sequence of Sodium channel protein type 5 subunit alpha (Q14524 whole entry): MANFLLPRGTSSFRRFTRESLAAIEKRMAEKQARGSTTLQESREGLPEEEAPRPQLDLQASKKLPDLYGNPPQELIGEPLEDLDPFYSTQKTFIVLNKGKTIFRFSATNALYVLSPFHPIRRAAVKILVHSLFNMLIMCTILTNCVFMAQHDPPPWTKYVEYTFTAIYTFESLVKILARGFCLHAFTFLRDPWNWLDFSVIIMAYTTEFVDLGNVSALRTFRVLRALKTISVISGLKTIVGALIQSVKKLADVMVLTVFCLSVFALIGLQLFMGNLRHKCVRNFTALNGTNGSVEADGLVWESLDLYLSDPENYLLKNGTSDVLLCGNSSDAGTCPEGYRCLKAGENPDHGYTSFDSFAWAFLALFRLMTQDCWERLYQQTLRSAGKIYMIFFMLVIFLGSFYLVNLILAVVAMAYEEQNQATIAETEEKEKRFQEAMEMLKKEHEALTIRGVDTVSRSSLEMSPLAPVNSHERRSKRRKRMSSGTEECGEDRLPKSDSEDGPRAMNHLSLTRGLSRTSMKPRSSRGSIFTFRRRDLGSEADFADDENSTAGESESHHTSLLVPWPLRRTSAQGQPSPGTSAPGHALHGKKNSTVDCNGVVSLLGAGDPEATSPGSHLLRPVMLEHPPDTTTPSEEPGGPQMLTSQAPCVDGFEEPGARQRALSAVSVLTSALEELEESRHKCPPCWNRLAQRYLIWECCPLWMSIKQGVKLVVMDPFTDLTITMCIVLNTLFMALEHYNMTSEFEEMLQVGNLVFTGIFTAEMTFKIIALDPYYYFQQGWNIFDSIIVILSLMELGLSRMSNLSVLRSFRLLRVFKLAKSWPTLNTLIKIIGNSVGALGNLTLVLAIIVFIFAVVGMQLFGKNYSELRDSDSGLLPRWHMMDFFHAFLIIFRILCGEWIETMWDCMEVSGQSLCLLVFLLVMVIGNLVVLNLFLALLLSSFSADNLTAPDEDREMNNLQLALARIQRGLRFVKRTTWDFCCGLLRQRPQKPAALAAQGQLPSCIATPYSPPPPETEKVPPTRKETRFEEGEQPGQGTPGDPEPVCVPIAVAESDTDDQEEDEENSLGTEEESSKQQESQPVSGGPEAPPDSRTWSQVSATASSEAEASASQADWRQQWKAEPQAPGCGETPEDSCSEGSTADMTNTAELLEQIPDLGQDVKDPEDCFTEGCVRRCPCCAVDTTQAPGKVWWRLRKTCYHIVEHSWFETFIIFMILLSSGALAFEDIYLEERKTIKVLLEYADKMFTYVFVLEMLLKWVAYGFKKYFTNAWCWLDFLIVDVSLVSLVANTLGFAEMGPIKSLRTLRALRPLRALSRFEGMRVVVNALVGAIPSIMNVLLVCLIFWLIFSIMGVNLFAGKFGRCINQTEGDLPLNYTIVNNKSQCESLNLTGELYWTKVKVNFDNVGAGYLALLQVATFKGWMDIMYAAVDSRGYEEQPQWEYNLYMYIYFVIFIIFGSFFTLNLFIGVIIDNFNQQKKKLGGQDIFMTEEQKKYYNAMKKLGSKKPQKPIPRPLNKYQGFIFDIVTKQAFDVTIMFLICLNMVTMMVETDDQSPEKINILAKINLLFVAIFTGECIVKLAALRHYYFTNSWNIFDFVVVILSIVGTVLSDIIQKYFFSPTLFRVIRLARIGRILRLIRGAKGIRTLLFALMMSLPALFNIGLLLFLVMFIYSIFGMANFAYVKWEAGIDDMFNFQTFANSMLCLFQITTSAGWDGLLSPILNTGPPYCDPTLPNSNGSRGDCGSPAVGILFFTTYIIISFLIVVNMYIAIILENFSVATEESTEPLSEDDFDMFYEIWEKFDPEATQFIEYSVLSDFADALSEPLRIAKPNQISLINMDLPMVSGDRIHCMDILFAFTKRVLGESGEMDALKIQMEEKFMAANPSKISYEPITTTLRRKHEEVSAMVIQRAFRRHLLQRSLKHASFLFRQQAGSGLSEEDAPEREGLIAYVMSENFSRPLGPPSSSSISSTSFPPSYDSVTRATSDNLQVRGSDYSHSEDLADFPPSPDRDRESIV
Data set [2] can be described thus: Photostability of the compound in bath solution by measuring reversible photo-isomerism measured after exposure to 365 to 530 nm UV irradiation by UV spectra. In kind it is physicochemical.
The species named for data set [3] is Mus musculus. As to the kind of experiment: Antinociceptive activity against capsaicin-induced […] knock-out C57BL/6J mouse left check pain model assessed as reduction in frequency of wiping within 10 mins at 1 mM smeared on left check followed by exposed to 365 nm UV light. In kind it is functional, organism-based.
Data set [4] in a line: Drug metabolism in bath solution assessed as photochemical switch by measuring cis-isoform at 50 uM measured after exposure to 365 nm UV irradiation by HPLC analysis. The format is physicochemical.
Data set [5] in a line: Drug metabolism in cyclohexane assessed as thermal isomerization by measuring half life at 50 uM at 25 degC by UV-vis spectroscopy. The format is physicochemical.
For data set [6], the system named is HEK293. As to the kind of experiment: Induction of Ca2+ influx in TRPA1 untransfected HEK293 cells at 10 uM measured under 365 nm UV irradiation by Fluo-8 based calcium imaging assay. In kind it is functional, cell-based. Conditions: Homo sapiens.
In data set [7] the target is Transient receptor potential cation channel subfamily A member 1 (Mus musculus) (UniProt Q8BLA8). The experiment in a line: In vivo induction of TRPA1 channel desensitization in capsaicin-induced wild type C57BL/6J mouse left check pain model assessed as macroscopic current desensitization at 300 uM treated 11 consecutive repeat measured after exposed to 365 nm UV light. The format is functional, organism-based.

Data set [8] addresses T1, Transient receptor potential cation channel subfamily A member 1 (Homo sapiens, UniProt O75762). As to the kind of experiment: Inhibition of fluorescent probe A1CA binding to TRPA1 (unknown origin) expressed in CHO cells assessed as decrease in fluorescent intensity at 10 uM incubated for 2 mins by confocal fluorescence microscopy. The format is cell-based.
In data set [9] the target is Sodium channel protein type 4 subunit alpha (Homo sapiens) (UniProt P35499). The experiment in a line: Effect on Nav1.4 (unknown origin) transfected in CHO cells assessed as activation of channel current in presence of 365 nm UV irradiation by whole-cell patch clamp electrophysiology. The format is cell-based.
Sequence of Sodium channel protein type 4 subunit alpha (Homo sapiens) (P35499 whole entry, looked up): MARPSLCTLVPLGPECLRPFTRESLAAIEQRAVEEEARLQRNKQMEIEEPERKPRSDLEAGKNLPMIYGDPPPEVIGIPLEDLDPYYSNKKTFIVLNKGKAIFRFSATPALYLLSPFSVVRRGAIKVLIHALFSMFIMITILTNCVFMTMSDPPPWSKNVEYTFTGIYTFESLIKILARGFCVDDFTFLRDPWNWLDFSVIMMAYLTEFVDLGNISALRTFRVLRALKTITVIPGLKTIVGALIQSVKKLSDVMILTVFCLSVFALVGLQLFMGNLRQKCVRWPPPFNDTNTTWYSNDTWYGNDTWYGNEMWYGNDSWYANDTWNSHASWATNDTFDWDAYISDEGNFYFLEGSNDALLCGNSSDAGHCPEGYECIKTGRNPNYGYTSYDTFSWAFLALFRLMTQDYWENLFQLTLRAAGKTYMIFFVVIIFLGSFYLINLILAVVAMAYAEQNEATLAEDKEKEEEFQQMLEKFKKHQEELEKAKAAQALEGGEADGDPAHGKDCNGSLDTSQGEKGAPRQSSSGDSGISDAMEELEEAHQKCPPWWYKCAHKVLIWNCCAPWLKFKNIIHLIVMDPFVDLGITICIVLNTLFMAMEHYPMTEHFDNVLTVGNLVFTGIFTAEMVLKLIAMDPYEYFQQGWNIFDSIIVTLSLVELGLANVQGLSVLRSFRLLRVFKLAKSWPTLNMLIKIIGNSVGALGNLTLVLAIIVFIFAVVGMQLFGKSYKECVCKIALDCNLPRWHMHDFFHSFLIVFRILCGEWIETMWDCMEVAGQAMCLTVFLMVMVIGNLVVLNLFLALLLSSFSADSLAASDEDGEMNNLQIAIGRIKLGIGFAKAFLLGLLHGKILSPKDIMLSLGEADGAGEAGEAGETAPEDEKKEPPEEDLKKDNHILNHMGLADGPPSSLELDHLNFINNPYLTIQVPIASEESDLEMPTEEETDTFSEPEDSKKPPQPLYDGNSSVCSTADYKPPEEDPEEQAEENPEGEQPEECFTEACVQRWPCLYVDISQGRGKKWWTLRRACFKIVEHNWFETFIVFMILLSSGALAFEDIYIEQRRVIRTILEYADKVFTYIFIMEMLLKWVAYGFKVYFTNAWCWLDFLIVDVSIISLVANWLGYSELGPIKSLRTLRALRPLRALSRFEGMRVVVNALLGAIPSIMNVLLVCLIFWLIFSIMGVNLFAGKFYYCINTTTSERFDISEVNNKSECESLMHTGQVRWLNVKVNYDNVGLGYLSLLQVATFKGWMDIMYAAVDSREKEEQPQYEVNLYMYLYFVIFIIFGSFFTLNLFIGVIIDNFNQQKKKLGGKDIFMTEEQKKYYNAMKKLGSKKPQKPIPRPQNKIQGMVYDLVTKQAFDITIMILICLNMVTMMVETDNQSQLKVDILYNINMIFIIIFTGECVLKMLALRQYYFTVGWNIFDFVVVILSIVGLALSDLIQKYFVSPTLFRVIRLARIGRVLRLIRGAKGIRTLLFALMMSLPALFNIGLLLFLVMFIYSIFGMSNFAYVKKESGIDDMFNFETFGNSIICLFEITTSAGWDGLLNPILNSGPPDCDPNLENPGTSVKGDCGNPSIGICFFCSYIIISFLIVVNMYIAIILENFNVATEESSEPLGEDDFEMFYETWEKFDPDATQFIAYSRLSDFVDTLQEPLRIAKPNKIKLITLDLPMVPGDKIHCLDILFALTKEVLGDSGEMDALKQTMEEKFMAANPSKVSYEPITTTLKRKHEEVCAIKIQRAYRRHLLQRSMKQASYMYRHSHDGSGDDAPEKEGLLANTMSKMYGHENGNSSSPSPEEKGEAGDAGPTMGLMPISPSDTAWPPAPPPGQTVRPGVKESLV
The target in data set [10] is T2, Transient receptor potential cation channel subfamily V member 3 (Homo sapiens) (UniProt Q8NET8).
T2 sequence (whole entry): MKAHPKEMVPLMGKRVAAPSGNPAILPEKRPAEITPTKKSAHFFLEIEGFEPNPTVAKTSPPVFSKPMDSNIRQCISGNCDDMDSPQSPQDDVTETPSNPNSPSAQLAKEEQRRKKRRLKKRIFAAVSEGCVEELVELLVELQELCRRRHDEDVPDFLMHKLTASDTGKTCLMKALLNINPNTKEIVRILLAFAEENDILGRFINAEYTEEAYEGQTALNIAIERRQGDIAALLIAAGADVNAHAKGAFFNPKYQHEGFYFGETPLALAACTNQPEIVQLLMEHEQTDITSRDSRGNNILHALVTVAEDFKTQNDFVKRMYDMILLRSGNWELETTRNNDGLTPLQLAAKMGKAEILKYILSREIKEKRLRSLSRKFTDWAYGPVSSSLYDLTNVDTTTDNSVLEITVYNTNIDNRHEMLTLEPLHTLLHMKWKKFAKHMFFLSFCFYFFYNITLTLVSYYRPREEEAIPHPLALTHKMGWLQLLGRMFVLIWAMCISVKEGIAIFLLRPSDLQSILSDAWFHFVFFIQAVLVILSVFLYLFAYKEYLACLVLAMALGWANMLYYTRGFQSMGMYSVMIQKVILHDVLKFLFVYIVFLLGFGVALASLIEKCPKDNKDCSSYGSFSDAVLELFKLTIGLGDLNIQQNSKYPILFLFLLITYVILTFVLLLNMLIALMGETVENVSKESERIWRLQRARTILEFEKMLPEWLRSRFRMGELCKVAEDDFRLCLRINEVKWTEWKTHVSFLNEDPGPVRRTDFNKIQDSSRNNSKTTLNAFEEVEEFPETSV
The experiment in a line: Effect on TRPV3 (unknown origin) transfected in CHO cells assessed as activation of channel current in presence of 365 nm UV irradiation by whole-cell patch clamp electrophysiology. The format is cell-based.

Data set [11] deals with T1, Transient receptor potential cation channel subfamily A member 1. As to the kind of experiment: Agonist activity at human TRPA1 expressed in HEK293 cells assessed as induction of Ca2+ influx at 10 uM measured under dark by Fluo-8 based calcium imaging assay. In kind it is cell-based.
Data set [12] has the same target. The experiment in a line: Agonist activity at human TRPA1 expressed in HEK293 cells assessed as induction of Ca2+ influx at 10 uM measured under 365 nm UV irradiation by Fluo-8 based calcium imaging assay. The format is cell-based. Conditions: filed as agonist.
For data set [13] the target is unchanged. The experiment in a line: Agonist activity at TRPA1 expressed in CHO cells assessed as activation of channel current in presence of 330 - 380 nm UV irradiation by whole-cell patch clamp electrophysiology. The format is cell-based.
The species named for data set [14] is Mus musculus. The experiment in a line: Antinociceptive activity against capsaicin-induced wild type C57BL/6J mouse left check pain model assessed as reduction in frequency of wiping within 10 mins at 1 mM smeared on left check. The format is functional, organism-based.
Data set [15] is described as follows: Drug metabolism in bath solution assessed as photochemical switch by measuring trans-isoform reversal at 50 uM measured after exposure to 415 nm UV irradiation by HPLC analysis. The format is physicochemical.
The species named for data set [16] is Mus musculus. The experiment in a line: Antinociceptive activity against capsaicin-induced wild type C57BL/6J mouse left check pain model assessed as reduction in frequency of wiping within 10 mins at 1 mM smeared on left check followed by exposed to 365 nm UV light. The format is functional, organism-based.
A short description of data set [17]: Drug metabolism in cell external solution assessed as thermal isomerization by measuring half life at 50 uM at 25 degC by UV-vis spectroscopy. In kind it is ADME.
Data set [18] deals with Transient receptor potential cation channel subfamily V member 4 (Homo sapiens) (UniProt Q9HBA0). The experiment in a line: Effect on TRPV4 (unknown origin) transfected in CHO cells assessed as activation of channel current in presence of 365 nm UV irradiation by whole-cell patch clamp electrophysiology. The format is cell-based.
Data set [19] addresses T1, Transient receptor potential cation channel subfamily A member 1. The experiment in a line: Agonist activity at human TRPA1 expressed in HEK293 cells assessed as induction of Ca2+ influx at 300 uM measured under 365 nm UV irradiation by Fluo-8 based calcium imaging assay. Conditions: filed as agonist. The format is cell-based.
Data set [20] has the same target. As to the kind of experiment: Agonist activity at TRPA1 expressed in CHO cells assessed as reversal of activated channel current in presence of 410 - 420 nm UV irradiation at 100 uM by whole-cell patch clamp electrophysiology. In kind it is cell-based.

Calls of active or inactive are those of the source. The calls are words filed in the database; no cut-off is given here.

T1 sequence (O75762 whole entry): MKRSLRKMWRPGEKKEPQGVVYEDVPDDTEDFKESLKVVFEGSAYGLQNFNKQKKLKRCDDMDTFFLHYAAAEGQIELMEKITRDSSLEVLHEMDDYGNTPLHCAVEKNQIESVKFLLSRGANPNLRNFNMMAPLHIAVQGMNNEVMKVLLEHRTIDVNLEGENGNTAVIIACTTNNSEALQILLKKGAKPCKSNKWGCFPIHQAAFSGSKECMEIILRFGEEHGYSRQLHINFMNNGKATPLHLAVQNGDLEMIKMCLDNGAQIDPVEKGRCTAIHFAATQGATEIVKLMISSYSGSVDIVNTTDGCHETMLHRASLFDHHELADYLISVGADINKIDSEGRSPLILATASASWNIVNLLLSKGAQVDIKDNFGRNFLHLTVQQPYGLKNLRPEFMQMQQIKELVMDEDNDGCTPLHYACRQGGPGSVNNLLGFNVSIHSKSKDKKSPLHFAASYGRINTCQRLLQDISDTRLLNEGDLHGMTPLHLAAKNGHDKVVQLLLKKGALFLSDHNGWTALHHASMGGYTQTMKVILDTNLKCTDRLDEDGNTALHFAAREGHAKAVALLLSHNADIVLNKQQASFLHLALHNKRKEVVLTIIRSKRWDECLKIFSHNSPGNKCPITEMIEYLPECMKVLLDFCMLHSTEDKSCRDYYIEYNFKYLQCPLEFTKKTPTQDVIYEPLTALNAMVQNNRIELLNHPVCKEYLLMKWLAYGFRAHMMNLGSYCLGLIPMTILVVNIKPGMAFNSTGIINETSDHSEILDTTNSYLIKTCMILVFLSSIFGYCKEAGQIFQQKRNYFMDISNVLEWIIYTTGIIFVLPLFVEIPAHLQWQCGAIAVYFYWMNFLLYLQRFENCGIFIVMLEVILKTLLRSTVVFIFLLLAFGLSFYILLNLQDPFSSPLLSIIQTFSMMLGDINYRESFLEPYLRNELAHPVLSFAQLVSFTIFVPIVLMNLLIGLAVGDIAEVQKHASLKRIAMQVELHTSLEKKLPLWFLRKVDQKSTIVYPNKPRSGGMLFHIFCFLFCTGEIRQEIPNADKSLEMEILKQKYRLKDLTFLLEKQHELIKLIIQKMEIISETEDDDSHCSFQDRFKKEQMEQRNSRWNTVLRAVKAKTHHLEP

For `O=C(O)c1ccc(/N=N/c2ccccc2)cc1`, in [1], the Activity result was “Not Active”. In addition, the Stability result in data set [2] is reported as “Stable”. Moreover, the result in [3], in data set [6], in data set [9], in data set [10], in data set [11] and in [14] was inactive. Moreover, the outcome in data set [18] was inactive. Moreover, the Drug metabolism result in [4] and in [15] was “Metabolite_Detected” each time. The half-life at 50 µM is 1.35 min in data set [5] and 6.55 min in data set [17]. The result in data set [7], in data set [12] and in [16] was Active. In addition, in data set [8], the inhibition result is “Active”. Besides, the EC50 in [13] came out at 24.8 µM.
Take `Oc1ccc(/N=N/c2ccccc2)cc1`: the inhibition entry in [8] was “Active”.
On to `C[C@H](CCC(=O)O)C[C@H](C)C[C@H](C)C(=O)/C=C(\O)[C@H](C)C[C@H](C)C/C=C/[C@@H](C)[C@@H](O)[C@@H](C)[C@@H](O)C[C@@H]1CC[C@@](C)([C@H]2CC[C@@](C)([C@@H](C)O)O2)O1`, for which, in [12], the result was Active.
Take `C=CCN=C=S`: the result in data set [19] was Active.
Turning to `Cc1cnccc1/N=N/c1ccccc1`, the Stability result in data set [2] is recorded as “Stable”. Moreover, the Drug metabolism result in data set [4] is given as “Metabolite_Notdetected”. In [5], the half-life at 50 µM is 1.67 min. Also, the outcome in data set [6], in data set [11] and in [16] was inactive. Moreover, in [8], the inhibition result is “Active”. The outcome in data set [12] was Active. Moreover, the EC50 in [13] was determined as 19.2 µM.
For the molecule `Nc1cccc(/N=N/c2ccccc2)c1`, the Stability entry in data set [2] is recorded as “Stable”. Further, the Drug metabolism entry in [4] is reported as “Metabolite_Notdetected”. Further, the result in data set [6] and in data set [11] was inactive. In addition, the inhibition entry in data set [8] is “Active”. Further, the result in data set [12] was Active.
With `Oc1cccc(/N=N/c2ccccc2)c1`, the Stability entry in data set [2] is on record as “Stable”. In addition, the Drug metabolism entry in data set [4] and in data set [15] was “Metabolite_Detected” throughout. In addition, the values for the half-life at 50 µM in data set [5] and in data set [17] were 1.65 min and 2.43 min, respectively. Also, the outcome in data set [6], in data set [11], in data set [20] and in [16] was inactive. The inhibition entry in data set [8] is “Active”. In addition, the outcome in data set [12] was Active. Further, the concentration giving a half-maximal response (EC50) in [13] was 104 µM.
For the molecule `Clc1cc(/N=N/c2ccccc2)ccn1`, the Activity entry in data set [1] is listed as “Not Active”. Moreover, the Stability result in [2] is recorded as “Stable”. Further, the result in data set [3], in data set [6], in data set [9], in data set [10], in data set [11] and in data set [14] was inactive. Besides, in data set [18], the outcome was inactive. The Drug metabolism result in [4] and in data set [15] was “Metabolite_Detected” each time. In addition, the values for the half-life at 50 µM in data set [5] and in [17] were 5.3 min and 9.67 min, respectively. The result in data set [7], in data set [12] and in [16] was Active. For the same molecule, the inhibition entry in data set [8] is “Active”. The EC50 in data set [13] was 5.55 µM.
Consider `c1ccc(/N=N/c2ccncc2)cc1`, for which the inhibition result in data set [8] was “Active”.
